row,Structure (SMILES),melting point
1,CC(=O)NC1=NN(c2ccccc2)CC1C (stereo not drawn),149 to 150 °C
2,COC(=O)C1=C(C)NC(C)=C(C(=O)OCCCCCCOc2cc(-c3ccccc3)[nH]n2)C1c1cccc([N+](=O)[O-])c1 (stereo not drawn),151 to 153 °C
3,COC(=O)C1=C(C)NC(C)=C(C(=O)OC)C1c1cccc(NC(=S)NNC(=O)CN2CCC(c3cccc(OC)c3)CC2)c1,113 to 116 °C
4,C=CCC(CC=C)C(=O)O[C@H]1C[C@H](O)C=C2C=C[C@H](C)[C@H](CC[C@@H]3C[C@@H](O)CC(=O)O3)[C@H]21,159 to 160 °C
5,CS(=O)(=O)c1cccc(-c2ccccc2NC(=S)NC(=O)c2ccccc2)c1,179 to 180 °C
6,CCN(CC)c1nc2ccccc2n2cnnc12,117 to 119 °C
7,O=C(O)c1nc2c(=O)[nH]c3cc(C(F)(F)F)ccc3n2c1CP(=O)(O)O,> 250 °C
8,O=C1CC[C@@H](c2ccccc2)[C@H](c2ccccc2)N1CO (relative stereo),127 to 129 °C
9,CC1CCC(CCC(=O)O)(CCC(=O)O)C(=O)C1(CCC(=O)O)CCC(=O)O (stereo not drawn),210 to 213 °C
10,O=C(CCl)Nc1csc(Br)n1,146 to 148 °C
11,COCCNC1CCc2cc(Nc3ncc(Cl)c(Nc4c(OC)ccc5c4CN(S(C)(=O)=O)CC(=O)N5)n3)c(OC)cc2CC1 (stereo not drawn),110 to 114 °C
12,CC(C)(C)OC(=O)NCCOC(=O)COc1ccc(CCCCNC(N)=NC(=O)c2nc(Cl)c(N)nc2N)cc1,80 to 82 °C
13,CC(C)CC(=O)OC(C)OC(=O)NC1(C(=O)O)CC1 (stereo not drawn),117 to 119 °C
14,O=C(O)CCc1ccc(CCNS(=O)(=O)c2ccc(Cl)cc2)s1,127 to 130 °C
15,COc1cc(OCc2ccccn2)ccc1/C=C/c1cc(/C=C/c2ccc3c(c2)OCCO3)n[nH]1,153 to 155 °C
16,COc1cc2c(c(OC(C)=O)c1)C1CCC3(C)C(O)CCC3C1CC2 (stereo not drawn),107 to 110 °C
17,Cc1ccc(C(=O)c2cccc3c2CCC3C(N)=O)cc1 (stereo not drawn),188 to 191 °C
18,Cc1ccc(C(F)(F)c2ccc(C3CCCN4CCS(=O)(=O)N=C34)cc2)cc1 (stereo not drawn),190 to 191 °C
19,Cc1cc2nc3ccc(C#N)cn3c(=O)c2s1,258 to 259 °C
20,COc1ccc(Cc2nc3c(c(OC)nn3C(C)CCCc3ccccc3)c(=O)[nH]2)cc1OC (stereo not drawn),148 °C
21,COc1ccc(-c2ccnc3c(C(=O)c4cccs4)cnn23)cc1NC(=O)NC(C)C,202 to 204 °C
22,CC(O)C(C)C1=C2C(C)(C)C3CCC2(C3)C(C)(C)CC1 (stereo not drawn),119 to 121 °C
23,CCOC(=O)Nn1cccc1C(=O)c1ccccc1Cl,90 to 92 °C
24,Cc1cn(-c2cc(NC(=O)c3cccc4cc(Oc5ccnc(N)c5)ccc34)cc(C(F)(F)F)c2)cn1,236 to 239 °C
25,O=C(O)CS(=O)c1cc2onc(-c3ccccc3F)c2cc1Br (stereo not drawn),173 to 174 °C
26,CCCCCCc1cc2c(s1)-n1c(C)nnc1CN=C2c1ccccc1C,135 to 137 °C

row,Structure (SMILES),melting point
1,CCOC(=O)C(=O)C1COc2ccccc2C1=O (stereo not drawn),73 to 75 °C
2,CN(C)c1ccc(S(=O)(=O)n2c(CCCC(=O)O)cc3nc(Cl)ccc32)c(Cl)c1,208 °C
3,CCOC(=O)c1cnc2cc(C(C)(C)C)ccc2c1O,279 to 281 °C
4,C=CCOc1ccc(C(=O)C=Cc2c(OC)cccc2OC)cc1,102 to 103 °C
5,Nc1ccc(CCc2ccc(Cl)c(Cl)c2)cc1O,147 to 149 °C
6,N#CCC(O)(c1ccc(Br)cc1)c1cccnc1 (stereo not drawn),158 to 161 °C
7,N#CC1CCCCn2cccc21 (stereo not drawn),70 to 72 °C
8,O=C1N(c2cc(Cl)nc(Cl)c2)C(=O)[C@]2(Cc3ccc(OC(F)(F)F)cc3)C[C@@H](c3cc[nH]c3C(=O)C(F)(F)F)CN12,167 °C
9,CCn1cc(C(=O)O)c(=O)c2cc(F)c(-c3ccnc(N)n3)cc21,245 to 247 °C
10,Fc1ccccc1COC1COC(CCl)OC1 (stereo not drawn),60 to 62 °C
11,c1csc(-c2coc(COc3ccc(CCCn4ccnc4)cc3)n2)c1,123 to 124 °C
12,Cc1ccc(OCc2ccccc2)c(C(=O)O)c1,98 to 100 °C
13,CCOC(=O)c1ccc(N2CCC(NCC(O)COc3cccc([N+](=O)[O-])c3N)CC2)nc1 (stereo not drawn),140 to 142 °C
14,COC(=O)c1ccc2cc(OCc3ccccc3)ccc2c1,148 to 149 °C
15,CCNC(=O)Nc1nc2cc(-c3cccnc3)cc(C(=O)OC)n2n1,211 to 213 °C
16,CC(C)C(=O)Nc1ccnc(-c2ccncc2)n1,215 to 217 °C
17,O=S1(=O)c2cccc3cccc(c23)N1CCCN1CCN(c2ccccn2)CC1,101 °C
18,NC(=O)N1CCC(=O)C(C(c2ccccc2)c2ccccc2)C1 (stereo not drawn),88 to 89 °C
19,COC(=O)C1Cc2c([nH]c3ccccc23)C(c2ccc(O)cc2)N1 (stereo not drawn),233 to 235 °C
20,N#CCc1nn(-c2ccccn2)c(N)c1C#N,178 to 179 °C
21,Nc1cc(CC(=O)O)cc(C(=O)O)c1,214 to 220 °C
22,Cc1c(CN(C)C)cc(C(C)(C)CC(C)(C)C)c(O)c1C,130 to 132 °C
23,O=C1/C(=C(/c2ccccc2)N2CCCC2)Sc2ccccc21,157 °C
24,CSc1sc(C(N)=O)c2c1-c1sc(-c3ccccc3)cc1CC2,192 to 193 °C
25,COC(=O)c1ccc(-c2nc(-c3ccc(Cl)cc3)cs2)cc1,186 to 187 °C
26,COC(=O)CCc1ccc(N2CCN(c3ccc(C(=N)NC(=O)OC)cc3)S2(=O)=O)cc1,> 275 °C

row,Structure (SMILES),melting point
1,CCOC(=O)c1ncc(Cl)cc1N,140 to 142 °C
2,Cc1cc(Cl)c(Cl)cc1NC(=O)C1(C(=O)O)CC1,248 to 251 °C
3,CCCCCC(CC(=O)O)c1cc(C(=O)CC)c(OC)cc1OC (stereo not drawn),92.5 to 94 °C
4,Cc1noc(NS(=O)(=O)c2ccccc2)c1Cl,140 to 143 °C
5,C=C1C=C(Oc2cc(C(=O)Nc3c(Cl)cncc3Cl)ccc2OC)C1(F)F,102 to 104 °C
6,COC(=O)C1=C(COCCn2c(C)nc(C)c2C)Nc2[nH]c(N)nc(=O)c2C1c1ccccc1Cl (stereo not drawn),225 to 227 °C
7,Cc1c(C)c2c(c(C)c1N)CC(C)(CN1CCN(C(=O)c3ccc([N+](=O)[O-])cc3)CC1)O2 (stereo not drawn),154 to 158 °C
8,O=C(Nc1ccc(Cl)cc1)O[C@H]1COC(c2ccccc2)=N[C@@H]1c1ccccc1 (racemic),200 °C
9,O=C1OC(=O)c2cc(C(F)(F)F)ccc21,54 °C
10,O=C(Cc1c[nH]c2ccccc12)OCc1ccccc1,71 to 72 °C
11,O=C(NCCO)c1cccc(-c2cccn3cc(Cc4cccc(C(F)(F)F)c4)nc23)c1,136 to 137 °C
12,CCN(CC)CC#CCCC(=O)C(O)(c1ccccc1)C1CCCC1 (stereo not drawn),128 to 129 °C
13,ClC(Cl)(Cl)C1NCC(c2ccccc2)O1 (stereo not drawn),58 to 64 °C
14,CCOC(=O)c1[nH]c2cc(Br)c(Cl)cc2c1-c1ccccc1,205 to 206 °C
15,Cc1cc(NC2=NCCN2)n(-c2cccc3ccccc23)n1,221 to 224 °C
16,Cc1nn(C)c2nc(N)c(-c3ccc(F)cc3)nc12,208 to 210 °C
17,CC(=O)SC(CC(=O)c1ccc(Oc2ccccc2)cc1)C(=O)O (stereo not drawn),106 °C
18,O=C1NC(=O)C(CC#Cc2ccc(Cl)cc2)(Sc2nc3ccccc3o2)S1 (stereo not drawn),137 to 139 °C
19,OCCCc1cn(-c2ccc(C(F)(F)F)cn2)nc1OCc1ccccc1,79 to 81 °C
20,COc1ccc(-c2cncc(OC3SCC(O)C(O)C3O)c2)cc1F (stereo not drawn),200 °C
21,CN(C(=O)OCc1ccccc1)[C@@H](CCC(=O)O)C(=O)O,97 to 98 °C
22,NC(=O)c1cccc(OCCCCCn2cnc3c(Cl)ncnc32)c1,132 to 133 °C
23,CP1(=O)OCc2ccccc21 (stereo not drawn),70 to 72 °C
24,CCCCCCN1CCN(Cc2ccc(NC(N)=S)cc2)C(=O)C1=O,197 to 198 °C
25,Oc1ncc(-c2ccccc2)s1,202 to 204 °C
26,O=[N+]([O-])c1ccccc1N1CCc2ccccc21,62 to 64 °C

row,Structure (SMILES),melting point
1,CC(=O)Nc1c(C(=O)C2CCCC(C)C2)[nH]c2cc(Cl)ccc12 (stereo not drawn),202 to 203 °C
2,ClCCCOc1cccc(OCCCCl)c1,135 to 136 °C
3,CC12Cc3cnn(-c4ccc(F)cc4)c3C=C1CCC1OC3(CC=C12)C(=O)NC(=O)NC3=O (stereo not drawn),235 to 236 °C
4,CCOC(=O)COc1cccc(C(NC(C)=O)(C(=O)OCC)C(=O)OCC)c1,98.5 to 102 °C
5,Cc1cc(CC(=O)O)n(C)c1C(=O)c1ccc(Cl)cc1Cl,140 to 143 °C
6,CN1C(=O)C(C)(C)Oc2c(C(=O)O)cc(Cl)cc21,235 to 236 °C
7,BrCCc1ccc2c(c1)CCC2,57.8 to 58.1 °C
8,Cc1cc(N)ccc1N1CCOCC1,83 to 84 °C
9,CN(C)Cc1cc2cc(C(=O)NN)ccc2o1,82 to 92 °C
10,O=c1ccc2c(-c3ccncc3)nccc2[nH]1,> 300 °C
11,CCCCCCCCCCCCCCCCCCON1C(=O)c2ccccc2C1=O,82 to 88 °C
12,c1ccc2c(c1)c1ccccc1c1[nH]cnc21,> 375 °C
13,CN(C)CCC1CCCCN1CCN(C)C(=O)N1c2ccccc2C(=O)Nc2cccnc21 (stereo not drawn),114 to 116 °C
14,Cc1nc(-c2ccc(F)cc2)c(-c2ccc(S(C)(=O)=O)cc2)o1,158 to 159 °C
15,CN1CCC(=O)C(=C(c2ccccc2)c2ccccc2)C1,129 to 131 °C
16,COC1(c2cc(F)cc(Sc3ccc(C(CO)=NO)cc3)c2)CCOCC1,145 to 146 °C
17,CCCCOCn1c(-c2ccc(Cl)cc2)c(C#N)c(Br)c1C(F)(F)F,52 to 53.5 °C
18,CCOC(=O)c1nc2sc(Br)c([N+](=O)[O-])c2c(=O)[nH]1,284 °C
19,CC(=O)NC[C@H]1CN(c2ccc3c(c2)N(C(=O)OCc2ccccc2)[C@H](C)C3)C(=O)O1,201 to 203 °C
20,NCC1Cc2cc(-c3cccc(Cl)c3)cc(F)c2O1 (stereo not drawn),> 250 °C
21,Cc1oc2c(NC(=O)c3c(Cl)ccc(O)c3Cl)cccc2c1C,192 to 194 °C
22,Cn1ncnc1COc1nn2c(-c3ccco3)nncc2c1-c1ccccc1F,204 to 206 °C
23,CCOP(=O)(O)Cc1cccc(C(F)(F)F)c1,48 to 51 °C
24,O=C(O)c1ccc(COCc2csc3nc(C(=O)NCc4cccc(Cl)c4)[nH]c(=O)c23)cc1,236 to 238 °C
25,CC(C)N(CCN1C(=O)/C(=N/NC(N)=O)c2ccccc21)C(C)C,189 to 191 °C

# — a melting point compilation (Tetko et al.; mined from patent text by program, amines drawn as free bases though some values may be those of a salt)
